Ends that are not written are not given here. * marks the point of attachment. 5FAM = O=C1OC2(c3ccc(O)cc3Oc3cc(O)ccc32)c2ccc(C(=O)*)cc21
Assays:
[1] = system: mitochondria of cardiac cells; assay: Co-localization with mitochondria of cardiac cells (FIG. 7); format: cell-based
mitochondria = assay: Confocal fluorescence microscopy of cellular localization of the conjugate in rat cells (FIG. 3); format: cell-based
Description: FIG. 3 contains confocal fluorescence microscopy images of rat liver cells incubated with MTS1-Ls-5-FAM for 24 hrs.
The MTS1-Ls-5-FAM conjugate was transfected into rat cells and incubated for 24 hours before confocal fluorescence microscopy was performed to ascertain cellular localization. Cells were co-stained with Mitotracker-Red and Hoescht 33342 for the mitochondria and nuclei, respectively.

[2] = system: mitochondrial membrane potential; assay: Quantification of mitochondrial membrane potential based on TMRE localization in cardiac cells (FIG. 8); format: cell-based; details: treated vs control, FIG. 8 panels E and F
Description: FIG. 8 consists of panels A-J. Panels A and B are images showing quantification of mitochondrial membrane potential based on TMRE localization in control (panel A) and MTS1-Ls-5-FAM-treated (panel B) cardiac cells. TMRE localizes in the mitochondria, and based on the intensity of the TMRE dye, the mitochondrial membrane potential can be calculated (panel C).

skeletal muscle = assay: Skeletal muscle healing and disuse atrophy in older mice; format: in vivo; details: high doses
Description: (§1) The inventors recently discovered functional mitochondrial Angiotensin receptors (mtAT1R and mtAT2R) that shift to an increased mtAT1R/mtAT2R ratio with aging. One of the protective benefits of Angiotensin (Ang) receptor type 1 (AT1R) blockers, such as Losartan (LOS), arises from its systemic effects on blood pressure and remodelling. […] Therefore, angiotensin receptor blockers such as Losartan have utility beyond hypertension treatment; angiotensin receptor blockers can be used in the treatment of conditions relevant to older adults.

mitochondrial function = assay: Effect of Losartan on mitochondrial function
Description: as §1

Row | Molecule | co-localization with mitochondria (images) ([1]; FIG. 7 panels A and B) | co-localization with mitochondria by Pearson coefficient ([1]; relative to the scrambled MTS1-Ls-5-FAM, FIG. 7 panel C) | co-localization with mitochondria by Mander's coefficient ([1]; relative to the scrambled MTS1-Ls-5-FAM, FIG. 7 panel D) | localization of the conjugate with the mitochondria (mitochondria; rat cells, incubated 24 hours, co-stained with Mitotracker-Red and Hoescht 33342) | localization in merged confocal image (mitochondria; rat liver cells incubated 24 hrs, FIG. 3 panel (d)) | maximum TMRE intensity per pixel [2] | disuse atrophy (skeletal muscle) | skeletal muscle healing (skeletal muscle) | mitochondrial function (mitochondrial function)
1 | MTS1-Ls-5-FAM (MLRAALSTARRGPRLSRLLCK(5FAM); not fully specified (C-terminus); printed as MLRAALSTARRGPRLSRLLCK(Mtt); also: losartan conjugated, site not given here) | positive co-localization | significantly more co-localized | significantly more co-localized | greater than 80% | localization of MTS1-Ls-5-FAM within the mitochondria | no significant difference | – | – | –
2 | CCCCc1nc(Cl)c(CO)n1Cc1ccc(-c2ccccc2-c2nn[nH]n2)cc1 [LOS, Losartan] | – | – | – | – | – | – | prevent disuse atrophy | accelerate skeletal muscle healing | improved

Reference: patent US10525144B2, “Selective targeting of an anti-inflammatory receptor in human mitochondria and preservation of mitochondrial functions” (THE JOHNS HOPKINS UNIVERSITY, priority 2014, dated 2020)
